# Assay results from US8952024B2, “Herbicidal pyrimidone derivatives” (E I du Pont de Nemours and Company, priority 2009, dated 2015).
# Where two headings read alike, the source gives them in different places.
# Key:
# Format in all cases: in vivo
# [1] = system: soybean (Glycine max); assay: Test B pre-/postemergence plant response; settings: for plant injury at 125 g/ha: 125 g ai/ha
# How it was run: (§1)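 Plants treated either at seeding (loam/sand soil) or postemergence at 2 to 18 cm height, using a surfactant-containing non-phytotoxic solvent formulation. Evaluation was visual after 13 to 15 days, 0 to 100 scale relative to controls.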
# [2] = system: wheat (Triticum aestivum); assay: Test B pre-/postemergence plant response; settings: for plant injury at 125 g/ha: 125 g ai/ha
# How it was run: as §1
# [3] = system: morningglory (Ipomoea coccinea); assay: Test B pre-/postemergence plant response
# How it was run: as §1
# [4] = system: cocklebur (Xanthium strumarium); assay: Test B pre-/postemergence plant response; settings: for pest or weed control at 31 g/ha: 31 g ai/ha; for pest or weed control at 125 g/ha: 125 g ai/ha
# How it was run: as §1
# [5] = system: large crabgrass (Digitaria sanguinalis); assay: Test A pre-/postemergence plant response; settings: Digitaria sanguinalis, 240 h, read-out: Plant response rating, Crabgrass, Large; for pest or weed control at 125 g/ha: 125 g ai/ha; for pest or weed control at 500 g/ha: 500 g ai/ha, approx. ten days
# How it was run: (§2)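 Pre: directed soil spray on seeded loam/sand blend. Post: same formulation (non-phytotoxic solvent + surfactant) on 2–10 cm plants, 1–2 leaf stage. Greenhouse ~10 d; visual injury score 0–100 vs untreated.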
# [6] = system: velvetleaf (Abutilon theophrasti); assay: Test A pre-/postemergence plant response; settings: Abutilon theophrasti, 240 h, read-out: Plant response rating, Velvetleaf; for pest or weed control at 125 g/ha: 125 g ai/ha; for pest or weed control at 500 g/ha: 500 g ai/ha, approx. ten days
# How it was run: as §2
# [7] = system: corn (Zea mays); assay: Test A pre-/postemergence plant response; settings: Zea mays, 240 h; for Corn plant response rating (crop injury, 0 = no effect, 100 = complete kill) at 125 g/ha: 125 g ai/ha
# How it was run: as §2
# [8] = system: barnyardgrass (Echinochloa crus-galli); assay: Test A pre-/postemergence plant response; settings: Echinochloa crus-galli, 240 h, read-out: Plant response rating, Barnyardgrass; for pest or weed control at 125 g/ha: 125 g ai/ha; for pest or weed control at 500 g/ha: 500 g ai/ha, approx. ten days
# How it was run: as §2
# [9] = system: wheat (Triticum aestivum); assay: Test A pre-/postemergence plant response; settings: Triticum aestivum, 240 h, read-out: Plant response rating, Wheat; for plant injury at 125 g/ha: 125 g ai/ha; for plant injury at 500 g/ha: 500 g ai/ha, approx. ten days
# How it was run: as §2
# [10] = system: morningglory (Ipomoea spp.); assay: Test A pre-/postemergence plant response; settings: Ipomoea, 240 h, read-out: Plant response rating, Morningglory; for pest or weed control at 125 g/ha: 125 g ai/ha; for pest or weed control at 500 g/ha: 500 g ai/ha, approx. ten days
# How it was run: as §2
# [11] = system: giant foxtail (Setaria faberii); assay: Test A pre-/postemergence plant response; settings: Setaria faberi, 240 h, read-out: Plant response rating, Foxtail, Giant; for pest or weed control at 125 g/ha: 125 g ai/ha; for pest or weed control at 500 g/ha: 500 g ai/ha, approx. ten days
# How it was run: as §2
# [12] = system: pigweed (Amaranthus retroflexus); assay: Test A pre-/postemergence plant response; settings: Amaranthus retroflexus, 240 h, read-out: Plant response rating, Pigweed; for pest or weed control at 125 g/ha: 125 g ai/ha; for pest or weed control at 500 g/ha: 500 g ai/ha, approx. ten days
# How it was run: as §2
# [13] = 62 g ai/ha, postemergence, 0 is no effect, 100 is complete control, 13 to 15 days
# [14] = Preemergence, 250 g ai/ha, 0 to 100 scale
# [15] = post-emergence, Postemergence, 0 to 100 scale where 0 is no effect and 100 is complete control
# [16] = post-emergence, Postemergence, 0 to 100 scale, 0 = no effect, 100 = complete control
# [17] = pre-emergence, Preemergence, 0 to 100 scale, 0 = no effect, 100 = complete control
# [18] = pre-emergence, Preemergence, visual injury, 0 to 100 scale (0 no effect, 100 complete control)
smiles,measurement,setting,value
"O=C1CCCC(O)=C1C(=O)c1cnc(-c2cccnc2)n(-c2ccccc2)c1=O [Compound 113, 5-[(2-hydroxy-6-oxo-1-cyclohexen-1-yl)carbonyl]-3-phenyl-2-(3-pyridinyl)-4(3H)-pyrimidone]",Soybean plant response rating (0 to 100 scale),[1]; [13],98
same,plant injury at 125 g/ha,"[1]; Glycine max, post-emergence, Postemergence, scale 0 to 100 (0 no effect, 100 complete control), read-out: Plant response rating, Soybean",98%
same,plant injury at 250 g/ha,"[1]; Glycine max, post-emergence, Postemergence, 250 g ai/ha, scale 0 to 100 (0 no effect, 100 complete control), read-out: Plant response rating, Soybean",98%
same,plant injury at 31 g/ha,"[1]; Glycine max, pre-emergence, Preemergence, 31 g ai/ha, scale 0 to 100 (0 no effect, 100 complete control), read-out: Plant response rating, Soybean",0%
same,plant injury at 62 g/ha,"[1]; Glycine max, pre-emergence, Preemergence, 62 g ai/ha, scale 0 to 100, 0 no effect, 100 complete control, read-out: Plant response rating, Soybean",65%
same,plant injury at 125 g/ha,"[1]; Glycine max, pre-emergence, Preemergence, scale 0 to 100, 0 no effect, 100 complete control, read-out: Plant response rating, Soybean",85%
same,Soybean plant response rating,[1]; [14],90
same,Wheat plant response rating (0 to 100 scale),[2]; [13],15
same,Wheat plant response rating,[2]; [14],10
same,plant injury at 125 g/ha,"[2]; Triticum aestivum, post-emergence, Postemergence, scale 0 to 100 (0 no effect, 100 complete control), read-out: Plant response rating, Wheat",40%
same,plant injury at 31 g/ha,"[2]; Triticum aestivum, pre-emergence, Preemergence, 31 g ai/ha, scale 0 to 100 (0 no effect, 100 complete control), read-out: Plant response rating, Wheat",0%
same,plant injury at 62 g/ha,"[2]; Triticum aestivum, pre-emergence, Preemergence, 62 g ai/ha, scale 0 to 100 (0 no effect, 100 complete control), read-out: Plant response rating, Wheat",0%
same,plant injury at 125 g/ha,"[2]; Triticum aestivum, pre-emergence, Preemergence, scale 0 to 100, 0 no effect, 100 complete control, read-out: Plant response rating, Wheat",10%
same,Morningglory plant response rating (0 to 100 scale),[3]; [13],100
same,pest or weed control at 31 g/ha,"[3]; Ipomoea, post-emergence, 31 g ai/ha, postemergence, scale 0 to 100, 0 is no effect, 100 is complete control, read-out: Plant response rating, Morningglory",98%
same,pest or weed control at 125 g/ha,"[3]; Ipomoea, post-emergence, Postemergence, 125 g ai/ha, scale 0 to 100 (0 no effect, 100 complete control), read-out: Plant response rating, Morningglory",100%
same,pest or weed control at 250 g/ha,"[3]; Ipomoea, post-emergence, Postemergence, 250 g ai/ha, scale 0 to 100 (0 no effect, 100 complete control), read-out: Plant response rating, Morningglory",100%
same,Cocklebur plant response rating (0 to 100 scale),[4]; [13],95
same,Cocklebur plant response rating,[4]; [14],100
same,pest or weed control at 31 g/ha,"[4]; Xanthium strumarium, post-emergence, postemergence, scale 0 to 100, 0 is no effect, 100 is complete control, read-out: Plant response rating, Cocklebur",95%
same,pest or weed control at 125 g/ha,"[4]; Xanthium strumarium, post-emergence, Postemergence, scale 0 to 100 (0 no effect, 100 complete control), read-out: Plant response rating, Cocklebur",98%
same,pest or weed control at 250 g/ha,"[4]; Xanthium strumarium, post-emergence, Postemergence, 250 g ai/ha, scale 0 to 100 (0 no effect, 100 complete control), read-out: Plant response rating, Cocklebur",98%
same,pest or weed control at 31 g/ha,"[4]; Xanthium strumarium, pre-emergence, Preemergence, scale 0 to 100 (0 no effect, 100 complete control), read-out: Plant response rating, Cocklebur",45%
same,pest or weed control at 62 g/ha,"[4]; Xanthium strumarium, pre-emergence, Preemergence, 62 g ai/ha, scale 0 to 100, 0 no effect, 100 complete control, read-out: Plant response rating, Cocklebur",75%
same,pest or weed control at 125 g/ha,"[4]; Xanthium strumarium, pre-emergence, Preemergence, scale 0 to 100, 0 no effect, 100 complete control, read-out: Plant response rating, Cocklebur",90%
same,pest or weed control at 125 g/ha,[5]; [15],100%
same,pest or weed control at 500 g/ha,[5]; [16],100%
same,pest or weed control at 125 g/ha,[5]; [17],70%
same,pest or weed control at 500 g/ha,[5]; [18],100%
same,pest or weed control at 125 g/ha,[6]; [15],100%
same,pest or weed control at 500 g/ha,[6]; [16],100%
same,pest or weed control at 125 g/ha,[6]; [17],100%
same,pest or weed control at 500 g/ha,[6]; [18],100%
same,"Corn plant response rating (crop injury, 0 = no effect, 100 = complete kill) at 125 g/ha",[7]; [15],0%
same,"Corn plant response rating (crop injury, 0 = no effect, 100 = complete kill) at 500 g/ha","[7]; post-emergence, Postemergence, 500 g ai/ha, 0 to 100 scale, 0 = no effect, 100 = complete control, approx. ten days",60%
same,"Corn plant response rating (crop injury, 0 = no effect, 100 = complete kill) at 125 g/ha",[7]; [17],0%
same,pest or weed control at 125 g/ha,[8]; [15],70%
same,pest or weed control at 500 g/ha,[8]; [16],90%
same,pest or weed control at 125 g/ha,[8]; [17],10%
same,pest or weed control at 500 g/ha,[8]; [18],90%
same,plant injury at 125 g/ha,[9]; [15],0%
same,plant injury at 500 g/ha,[9]; [16],60%
same,plant injury at 125 g/ha,[9]; [17],0%
same,plant injury at 500 g/ha,[9]; [18],0%
same,pest or weed control at 125 g/ha,[10]; [15],100%
same,pest or weed control at 500 g/ha,[10]; [16],100%
same,pest or weed control at 125 g/ha,[10]; [17],30%
same,pest or weed control at 500 g/ha,[10]; [18],80%
same,pest or weed control at 125 g/ha,[11]; [15],90%
same,pest or weed control at 500 g/ha,[11]; [16],100%
same,pest or weed control at 125 g/ha,[11]; [17],70%
same,pest or weed control at 500 g/ha,[11]; [18],90%
same,pest or weed control at 125 g/ha,[12]; [15],100%
same,pest or weed control at 500 g/ha,[12]; [16],100%
same,pest or weed control at 125 g/ha,[12]; [17],100%
same,pest or weed control at 500 g/ha,[12]; [18],100%
